# Assay results published in article PMC5847048 (Psychopharmacology, 2017).
# Columns and labels:
# [1] = test system: middle-aged mice (14–15 months old); test: Contextual serial discrimination (CSD) task; format: in vivo, mouse; conditions: for Post hoc analysis of donepezil effect on SCM score for all S 47445 levels (Dunnett, versus vehicle group): all levels of S 47445 pooled
# Procedure: (§1) Treatments were administered per os daily for nine consecutive days for studies involving the CSD and SA tasks. The 8th and the 9th oral administrations were given 60 min before acquisition and test phases in the CSD task, or before the training and the test sessions in the SA task.
# The studies were carried out on mice according to the procedure described in full by Celerier et al. ([2004]) and Tronche et al. ([2010]) (Fig.1). Briefly, the mouse learns two consecutive spatial discriminations (D1 and D2) in a four hole-board apparatus (45 × 45 × 30 cm) enclosed with gray Plexiglas walls. The floor of the hole-board was interchangeable (white and rough versus black and smooth). On the floor, four holes opening on a food cup (3-cm diameter × 2.5-cm depth) were located 6 cm away from the sidewalls. Photocells located into the holes allowed an automatic recording of the number of head-dips in each hole.
# Fig. 1 a Contextual serial discrimination: at the acquisition phase, mice performed two consecutive spatial discrimination sessions varying by the color and texture of the floor, i.e., D1, discrimination 1, and D2, discrimination 2. For each discrimination session, only one out of the four holes of the apparatus was baited (hashed circles). […] One hour prior to acquisition and test phases, mice received a per os administration of the compounds or vehicle solution in a chamber placed in a room (room C) different from the one in which the behavioral experiments were conducted (room A). Subsequently, mice were submitted to the test phase in which they were repositioned on the floor of the first discrimination without any food pellet in the apparatus. b Two types of responses were calculated: (i) correct responses corresponding to head-dips into the hole baited at the acquisition of the first discrimination (D1), on the same floor context; (ii) interference responses corresponding to head-dips into the hole baited at the other (second) discrimination (D2). Both parameters allow calculation of the SCM score
# Mice were partially food-deprived for 1 week prior to experimentation and were maintained on a 12 ± 2% loss of their body weight throughout behavioral testing to increase motivation for food reward. During the food deprivation phase, mice were handled daily to familiarize them with the experimenter.
# During the acquisition session, mice were first placed at the center of the board in a plastic tube for 15 s and then learned two successive spatial discriminations (D1 and D2) for 6 min each and were each separated by a 2-min interval. Between two sessions, each mouse was placed in its home cage in an animal housing room. For D1, ten 20-mg pellets were available only in one of the four holes in the board. For D2, ten 20-mg pellets were located in the opposite symmetrical hole. The environmental spatial cues remained at the same place for D1 and D2. Within each group, the floors used for the first and second discrimination (D1 and D2) were counterbalanced at the acquisition phase from one mouse to the other. A minimal amount of eight pellets should be eaten per mouse at either D1 or D2 during the acquisition phase.
# During memory testing, D1 and D2 discriminations were performed in independent groups of mice, being replaced either on the floor of D1 or of D2. The food-deprived mice were replaced either on the floor of D1 or on the floor of D2. In each case, mice were allowed to explore the apparatus freely and performance was assessed by measuring the exploration for each hole for 6 min without any pellets in the apparatus. During the procedure, photocells allowed measurement of the number of head dips in each hole. Different parameters were further calculated: % of correct responses (head-dips into the hole previously baited on the same floor context), % of interfering responses (head-dips into the hole previously baited on the other floor context), and % of errors (head-dips into the two holes never previously baited).
# mice = test: Primary observation (Irwin) test; conditions: donepezil alone
# Text: Male Rj: C57BL/6J mice (Elevage Janvier, 53940 Le Genest-Saint-Isle, France), 23–27 g body weight range, were stabilized for at least 5 days after delivery in macrolon cages in groups of 10 (housing period) (25 × 19 × 13 cm) and then of 4 (starting the day before the test and during the test) in macrolon cages (25 × 19 × 13 or 32 × 13 × 14 cm) on wood litter with free access to food and water.
# Between one and three treated groups were compared with the same control at any one time. […] In order to keep the same conditions, all the mice receiving a single treatment also received another administration with vehicle.
# Behavioral modifications, physiological and neurotoxicity symptoms, and rectal temperature were recorded according to a standardized observation grid derived from that of Irwin. The grid contains the following items: death*, convulsions*, tremor*, Straub tail*, altered activity, excitation, jumping*, abnormal gait* (rolling, tip-toe), motor incoordination*, altered muscle tone, loss of grasping, akinesia, catalepsy, loss of traction, writhing*, piloerection*, stereotypies* (sniffing, chewing, head movements), head-twitches*, scratching*, altered respiration*, aggression*, altered fear, altered reactivity to touch, ptosis, exophthalmia, loss of righting reflex, loss of corneal reflex, analgesia, defecation/diarrhea, salivation, lacrimation, and rectal temperature (hypothermia/hyperthermia).
# [2] = test system: aged mice (22–24 months old); test: Radial maze working memory task; format: in vivo, mouse; conditions: donepezil 0.3 mg/kg s.c.; aged mice
# Procedure: In the radial arm maze task, treatments were administered subcutaneously (s.c.) once a day 60 min prior to testing from the 2 days of habituation to the 12 days of memory testing.
# The radial maze (Imetronic system, Pessac, France) was fully automated and enabled by video-tracking automatic testing and recording. Briefly, each mouse was separately assigned to six adjacent arms which were grouped into three pairs (A, B, C). These three pairs were presented repeatedly among the successive trials of each testing session. The location of the food reward varied in each pair according to an alternation rule among successive trials. Namely, among the two arms opened in a specific trial, the food was inserted in the arm which was not visited in the previous trial within the same pair. The mouse must therefore remember which of the two arms was visited in a specific trial until next presentation of the same pair, and so on in order to alternate its choice among successive presentations of any pair. At the beginning of each daily session, the mouse was placed in the central platform of the radial maze with all arms closed. One pair of arms only was opened at the beginning of each trial, and the mouse was required to visit one arm. The door of the non-chosen arm was closed as soon as the mouse reached the end of the chosen arm. The mouse was allowed to run back to the central platform of his own accord, and then, the door of the chosen arm was closed. The mouse remained in the central platform until the following trial (intertrial interval 10 s). Since three pairs were concurrently used, three specific arm visits must be kept in memory by the mouse until their utilization by using short-term working memory. After 2 days of free exploration in the maze (habituation), mice were submitted to 12 consecutive testing sessions: one session of 23 trials (3 “acquisition-only trials,” one by pair, and 20 “acquisition and test trials”) per day, i.e., a total of 276 trials (240 test trials).
# Each session consisted of alternate presentations of pairs A, B, and C. The first three trials with each pair were acquisition trials (both arms rewarded). Each of the following trials was at the same time an acquisition trial (for the following trial with the same pair) and a test trial (for the arm visit made during the preceding trial with the same pair); the rewarded arm was the one that has not been visited on the preceding trial with the same pair. Memory demand varied across successive trials according to the retention interval RI (i.e., the number of intervening trials with other pairs between two successive presentations of the same pair). The retention interval for one specific arm visit (e.g., within pair A) depends on the number of concurring trials (i.e., with pairs B and C) occurring till next trial with the same pair (A). Indeed, such a variable amount of interposed trials proportionally increases the delay between acquisition and test and may also generate retroactive interference. There are five levels of retention interval: from 0, corresponding to “no interposed pair,” to 4, corresponding to a sequence of four interposed trials between n-1 and n trials.
# During habituation, the time needed for visiting all six arms per session day was measured. During memory testing, memory performance was evaluated according to the percentage of correct alternation responses between successive trials with the same pair in three different manners.
# [3] = test system: aged mice (18–19 months old); test: Sequential/spontaneous alternation (SA) working memory task in T-maze; format: in vivo, mouse; conditions: donepezil 0.1 mg/kg p.o. alone, ITI 90 s, n = 12
# Procedure: as §1
# The spontaneous alternation (SA) task was performed in independent groups of mice as regards to the CSD and radial maze tasks. The SA task allows investigation of aged-induced working memory impairments (Vandesquille et al. [2011]). In this task, mice are submitted to a series of successive choices in a T-maze. To alternate from trial to trial, animals have to remember at each choice (except the first one) only the previous trial and to reset the interfering information from trial to trial over a series. This resetting mechanism is a main aspect of working memory (Aggleton et al. [1986]; Béracochéa and Jaffard, [1987]; Kesner [2005]).
# Behavioral tests were conducted in a gray Plexiglas T-maze. Stem and arms are 35 cm long, 15 cm wide, and 10 cm high. The starting box (10 cm × 12 cm) and each goal arm are separated from the central alley by a vertical sliding door, with opening and closing monitored by a computer. Photoelectric cells allow recording of both the choice of the goal arm (left or right) and the latency (in seconds) that elapsed between the opening of the starting box and the closing of the goal box. The T-maze is located at the center of a room with various allocentric cues (white or black or striped card boards) located on the wall 1 m above the apparatus.
# Animals were not food deprived, and no food reinforcement was used. Animals were first submitted to a habituation phase consisting of two free exploration sessions of 10 min each, over two consecutive days (one session per day) in the apparatus with all doors opened. At the end of the habituation phase, all animals were submitted to a training phase, involving a series of seven successive trials separated by a 30-s intertrial interval (ITI). The training phase was aimed at familiarizing the animals with the opening and closing of the doors.
# For the training session, animals were submitted to a sequence of seven successive identical trials. At the beginning of a trial, mice were placed in the starting box and after a confinement period (30 s, predefined ITI), the door to the stem was opened. When the mouse entered one of the goal arms, the door was closed and the chosen arm was recorded. After a 30-s confinement period in the chosen arm, the mouse was gently returned to the starting box for a second trial, identical to the first one. To avoid olfactory cues in the apparatus, visible traces of urine were removed and the general procedure was implemented as in the training phase, except that the ITI was extended to 90 s and animals were submitted to a series of […] successive trials. […] Moreover, an 8th trial was added to the series which was separated from the 7th one by a 5-s ITI. […] The alternation score (in percentage) was used as an index of memory performance. An alternation is defined as a visit in a given arm followed by a visit into the other arm. The successive sequence of visits for the seven first trials determines the level of alternation. A percentage of alternation was calculated: number of alternations performed/number maximal of alternation. This percentage is calculated for each mouse.
# For the sequential alternation task, mean and standard errors of the mean (SEM) were calculated for each group of treatment. In addition to % alternation drawn over the seven trials of the series, behavioral performances were also expressed in percentage of alternation drawn from blocks of two consecutive trials (block 1: trials 2 + 3; block 2: trials 4 + 5; block 3: trials 6 + 7). The analyses per trial blocks allowed evaluation of proactive interference over the series (Vandesquille et al. [2011], [2013]). Statistical analyses were performed using the Statview 5.0 software. […]
# [4] = test system: aged mice (22–24 months old); parameters: method as in Marighetto et al., [2008b]; conditions: ref Marighetto et al., [2008b], cited from earlier work
compound,measurement,setting,value
"COc1cc2c(cc1OC)C(=O)C(CC1CCN(Cc3ccccc3)CC1)C2 (centres unmarked) [Donepezil, reference compound]","Total number of explorations and % exploration of the baited hole, acquisition phase","[1]; Experiment 1 (study A and B), compounds alone, p> 0.10 in all analyses",No significant between-groups difference
same,Memory performance in the second discrimination (D2),"[1]; Experiment 1, S 47445 at all doses, donepezil at the active doses, versus middle-aged vehicle, data not shown",did not alter memory performance
same,"Total number of head-dips, test phase","[1]; Experiment 1, versus vehicles (p > 0.10 in all comparisons), data not shown",no significant effect
same,"SCM score of the second discrimination (D2), dose effect at pooled levels of the other drug","[1]; Supplemental data 2, S 47445 0.03–0.3 mg/kg p.o. (p=0.951), Donepezil 0.03 and 0.1 mg/kg (p=0.074)",no significant effect
same,"Post hoc analysis of donepezil effect on SCM score for all S 47445 levels (Dunnett, versus vehicle group)",[1]; donepezil 0.03 mg/kg,NS (p = 0.079) (NS p > 0.050)
same,"Post hoc analysis of donepezil effect on SCM score for all S 47445 levels (Dunnett, versus vehicle group)",[1]; donepezil 0.1 mg/kg,*** (***p ≤ 0.001)
same,Symptoms observed in the Irwin test,mice; 3 mg/kg p.o.,"Tremor, hypothermia, and decreases in activity, abdominal muscle tone, and reactivity to touch"
same,Additional symptoms observed in the Irwin test,mice; 10 mg/kg p.o.,Straub tail and abnormal gait (rolling)
same,Observable effects in the Irwin test,"mice; dose range 3–10 mg/kg p.o., mice",clear and dose-dependent sedative/myorelaxant effects
same,Performance as a function of retention interval (RI 0–4) versus chance level,[2],remained significantly above chance up to RI = 3
same,"Alternation score, 3rd block of trials (trials 6 + 7)",[3],45.833 ± 4.167 n = 12%
same,"Alternation score, seven first trials of the series",[3],alternated significantly above vehicles
same,Activity in radial maze working memory task,[4]; donepezil 0.3 mg/kg i.p.,limited to the organizational component of the task
same,Active dose in the same working memory task,[4]; donepezil,0.3 mg/kg but not of 1 mg/kg was found to be active
